In article PMC10747602, “Dose Response, Dosimetric, and Metabolic Evaluations of Replacement PFAS Perfluoro-(2,5,8-trimethyl-3,6,9-trioxadodecanoic) Acid (HFPO-TeA)” (Toxics, 2023):
“And” between values parts separate entries of the source, which are not always exact repeats. Equal entries are not always repeated.

Experiments:
Human plasma = assay: Ultracentrifugation plasma protein binding assay, human plasma; type: in vitro ADME; details: 10000 nM; for Average Stability (T5hr/ T1hr): 37 °C; for Aqueous Fraction concentration: after ultracentrifugation; for Aqueous Fraction concentration / Fraction Unbound in plasma (fup) / Stability (T5hr/ T1hr) / Time 1 hr concentration / Time 5 hr concentration: replicates A-C
Description: (§1) Information on the chemicals and materials used in the plasma protein binding work can be found in Supplementary Text S10 and Table S3. Human and rodent plasma were evaluated for plasma protein binding using ultracentrifugation, as previously described. Working solutions of 3 mM of HFPO-DA, HFPO-TA, and HFPO-TeA were prepared separately in ethanol, with each working solution containing 3 mM of testosterone (Sigma-Aldrich; ≥98% pure) as a reference compound for assay performance. An aliquot of each stock solution (13.3 µL) was added to separate 15 mL tubes with 3.987 mL of plasma for a final assay concentration of 10 µM. The plasma solutions were incubated at 37 °C and 125 rpm for 60 min. One-hour stability samples (T60 min) were drawn in triplicate and diluted in four volumes of plasma ultrafiltrate. Aliquots (1 mL) from each plasma solution were drawn in triplicate and transferred to polycarbonate tubing. These samples underwent ultracentrifugation (Beckman OptimaMax; Beckman Coulter Inc., Brea, CA, USA) at 850,000× g for 4 h at 37 °C.
(§2) The remaining plasma solutions were returned for incubation at 37 °C and 125 rpm for an additional 4 h. Five-hour stability samples (T300 min) were then drawn in triplicate and diluted in four volumes of plasma ultrafiltrate. After ultracentrifugation, the aqueous fraction (AF) was collected by transferring the supernatant to a new tube and diluting in an equal volume of plasma for matrix matching. All samples were combined with 3 volumes of ice-cold ACN containing 16 ng/mL of ^13C3-HFPO-DA and 16 ng/mL of ^13C-Testosterone (Cambridge Isotope Laboratories; 98% pure). Samples were vigorously mixed, stored for 10 min at −20 °C, and then centrifuged at 12,000× g for 10 min at 4 °C. Supernatants were collected then stored at −70 °C prior to analysis.
(§3) Fraction unbound (fu) in plasma (fup) and percent stability calculations are detailed in Supplementary Text S10. Hepatic clearance, the fu in blood (fub) (fu in plasma adjusted for blood:plasma partitioning), and renal clearance were used to derive the steady-state concentration (Css) of each compound that will be used for in vitro–in vivo extrapolation (IVIVE). Renal clearance was calculated using the glomerular filtration rate (a species-dependent constant) and the fub. The Css calculation is detailed in Supplementary Text S11.
(§4) The gradient is available in Table S11. […]
(§5) Chemical stability in plasma was assessed
(§6) (F) Percent Stability = T300minutesT60minutes∗100

[1] = as above; type: in vitro ADME; details: both sexes, human
Description: as §1, §2, §3, §4, §5, §6

[2] = tested on: Sprague Dawley rodent plasma; assay: Ultracentrifugation plasma protein binding assay, rat plasma; type: in vitro ADME; details: rat plasma, 10000 nM
Description: as §1, §2, §3, §4, §5, §6

[3] = as above; type: in vitro ADME; details: both sexes, Sprague Dawley, rat
Description: as §1, §2, §3, §4, §5, §6

[4] = In vitro-in vivo extrapolation (IVIVE) to estimate Css, human; details: for Css / Css (steady-state concentration, plasma): IVIVE, BW 70 kg; for Css: ID 0.042 mg/kg/hr; for Css (steady-state concentration, plasma): intake dosage 1 mg/kg/day; for fraction unbound: blood, fub=fup/(1-hemocrit ref value), hematocrit 0.45; for Clint: scaled (HPGL 110, Vl 1596 g)
Description: as §3
Linear regression analysis in conjunction […]
cells in the Clint equation. […]
concentration by the T300 min concentration (Equation E). Chemical stability in plasma was assessed […]
(F) Percent Stability = T300minutesT60minutes∗100 […]
blood (fub) of the parent compound. The Clhepatic calculation is shown in the second part of the denominator of Equation G; it is the product of the species dependent liver blood flow constant, the fub of the parent compound, and the experimentally derived intrins ic clearance (s hown in Equation D) divided by the sum these three values. All values used in Equation G are for first order conditions of metabolism in the liver. All calculations, scalars, and species dependent values used to conduct the Css calculation to facilitate in vitro-in vivo extrapolation (IVIVE) are provided Table S19 within the Excel worksheet, the tab […]
Based on the principle of reverse dosimetry, the Css values derived from IVIVE will be u sed as conversion factors to generate AEDs according to Equation H. In this equation, the AED is linearly related to the in vitro concentration and inversely related to the Css. It is only valid for first-order metabolism that is expected at ambient exposure levels.
(H) AED ൮ mgkg൲ = in vitro concentration (µM )

[5] = plasma, 10 µM, ultracentrifugation, read-out: Experimental fup (average fraction unbound in plasma)
[6] = pooled human plasma, 10000 nM, replicates A-C, read-out: Fraction Unbound in plasma (fup)
[7] = plasma, Rat plasma, 10 µM, ultracentrifugation, read-out: Experimental fup (average fraction unbound in plasma)
[8] = rat plasma, 10000 nM, Rep A, read-out: Fraction Unbound in plasma (fup), Rep A
[9] = rat plasma, 10000 nM, Rep B, read-out: Fraction Unbound in plasma (fup), Rep B
[10] = rat plasma, 10000 nM, Rep C, read-out: Fraction Unbound in plasma (fup), Rep C

With `O=C(O)C(F)(OC(F)(F)C(F)(OC(F)(F)C(F)(OC(F)(F)C(F)(F)C(F)(F)F)C(F)(F)F)C(F)(F)F)C(F)(F)F` (stereo not drawn) [HFPO-TeA, perfluoro-(2,5,8-trimethyl-3,6,9-trioxadodecanoic) acid] the “Average Stability (T5hr/ T1hr)” value (Human plasma) was 1.0363, the “Aqueous Fraction concentration” value (Human plasma) was 83.20 nM and 80 nM and 121.60 nM and the “Fraction Unbound in plasma (fup)” value (Human plasma) was 0.0109 and 0.0142. For the same compound, the “Stability (T5hr/ T1hr)” value (Human plasma) was 0.9304 and 0.9406 and 1.2379, the “Time 1 hr concentration” value (Human plasma) was 7.36 µM and 7.808 µM and 6.928 µM and the “Time 5 hr concentration” value (Human plasma) was 6.848 µM and 7.344 µM and 8.576 µM. For the same compound, the fraction unbound at 4 h, 10 µM [1, 5] was 0.0124, the fraction unbound at 4 h, 10 µM [1, 6] was 0.0121 and the “Average Stability (T5hr/ T1hr)” value [2] was 1.1996. For the same compound, the “Aqueous Fraction, Rep A” value [2] was 38.40 nM, the “Stability (T5hr/ T1hr), Rep A” value [2] was 0.9294 and the “Time 1 hr concentration, Rep A” value [2] was 8.384 µM. The “Time 5 hr concentration, Rep A” value [2] was 7.792 µM, the “Aqueous Fraction, Rep B” value [2] was 35.20 nM and the “Stability (T5hr/ T1hr), Rep B” value [2] was 1.0392. The “Time 1 hr concentration, Rep B” value [2] was 6.528 µM, the “Time 5 hr concentration, Rep B” value [2] was 6.784 µM and the “Aqueous Fraction, Rep C” value [2] was 48.00 nM. For the same compound, the “Stability (T5hr/ T1hr), Rep C” value [2] was 1.6301, the “Time 1 hr concentration, Rep C” value [2] was 3.936 µM and the “Time 5 hr concentration, Rep C” value [2] was 6.416 µM. The fraction unbound at 4 h, 10 µM [3, 7] was 0.0059, the fraction unbound at 4 h, 10 µM [3, 8] was 0.00493 and the fraction unbound at 4 h, 10 µM [3, 9] was 0.00519. The fraction unbound at 4 h, 10 µM [3, 10] was 0.00748, the “Clhep (hepatic clearance)” value [4] was 0 L/h and the Css [4] was 19420 ng/mL. For the same compound, the “Css (steady-state concentration, plasma)” value [4] was 29.34 µM and 29.3351 µM, the fraction unbound [4] was 0.0226 and the Clint [4] was 0 µL/min.
In the case of `O=C(O)C(F)(OC(F)(F)C(F)(F)C(F)(F)F)C(F)(F)F` (stereo not drawn) [HFPO-DA, perfluoro-2-methyl-3-oxahexanoic acid], the “Average Stability (T5hr/ T1hr)” value (Human plasma) is reported as 0.9905, the “Aqueous Fraction concentration” value (Human plasma) is reported as 72.64 nM and 73.60 nM and 65.28 nM and the “Fraction Unbound in plasma (fup)” value (Human plasma) is reported as 0.0095. The “Stability (T5hr/ T1hr)” value (Human plasma) was 0.9836 and 1.1438 and 0.8441, the “Time 1 hr concentration” value (Human plasma) was 7.4664 µM and 6.7536 µM and 7.8224 µM and the “Time 5 hr concentration” value (Human plasma) was 7.344 µM and 7.7248 µM and 6.6032 µM. For the same compound, the fraction unbound at 4 h, 10 µM [1, 5] was 0.0098, the fraction unbound at 4 h, 10 µM [1, 6] was 0.0099 and the “Average Stability (T5hr/ T1hr)” value [2] was 1.0909. The “Aqueous Fraction, Rep A” value [2] was 265.60 nM, the “Stability (T5hr/ T1hr), Rep A” value [2] was 1.0510 and the “Time 1 hr concentration, Rep A” value [2] was 8.312 µM. The “Time 5 hr concentration, Rep A” value [2] was 8.736 µM, the “Aqueous Fraction, Rep B” value [2] was 230.40 nM and the “Time 1 hr concentration, Rep B” value [2] was 7.672 µM. For the same compound, the “Aqueous Fraction, Rep C” value [2] was 240 nM, the “Stability (T5hr/ T1hr), Rep C” value [2] was 1.1308 and the “Time 1 hr concentration, Rep C” value [2] was 6.848 µM. For the same compound, the “Time 5 hr concentration, Rep C” value [2] was 7.744 µM, the fraction unbound at 4 h, 10 µM [3, 7] was 0.0307 and the fraction unbound at 4 h, 10 µM [3, 8] was 0.0304. For the same compound, the fraction unbound at 4 h, 10 µM [3, 10] was 0.031, the “Clhep (hepatic clearance)” value [4] was 0 L/h and the Css [4] was 24670 ng/mL. The “Css (steady-state concentration, plasma)” value [4] was 74.75 µM and 74.7454 µM, the fraction unbound [4] was 0.0178 and the Clint [4] was 0 µL/min.
For `O=C(O)C(F)(OC(F)(F)C(F)(OC(F)(F)C(F)(F)C(F)(F)F)C(F)(F)F)C(F)(F)F` (stereo not drawn) [HFPO-TA, perfluoro-(2,5-dimethyl-3,6-dioxanonanoic) acid], the “Average Stability (T5hr/ T1hr)” value (Human plasma) was 1.0308, the “Aqueous Fraction concentration” value (Human plasma) was 8.96 nM and 9.6 nM and 15.04 nM and the “Fraction Unbound in plasma (fup)” value (Human plasma) was 0.0011 and 0.0015. The “Stability (T5hr/ T1hr)” value (Human plasma) was 0.7676 and 1.2763 and 1.0484, the “Time 1 hr concentration” value (Human plasma) was 8.7016 µM and 7.0496 µM and 9.7592 µM and the “Time 5 hr concentration” value (Human plasma) was 6.6792 µM and 8.9976 µM and 10.232 µM. For the same compound, the fraction unbound at 4 h, 10 µM [1, 5] was 0.0013, the fraction unbound at 4 h, 10 µM [1, 6] was 0.0013 and the “Average Stability (T5hr/ T1hr)” value [2] was 1.0261. The “Aqueous Fraction, Rep A” value [2] was 16.00 nM, the “Stability (T5hr/ T1hr), Rep A” value [2] was 0.9209 and the “Time 1 hr concentration, Rep A” value [2] was 10.52 µM. For the same compound, the “Time 5 hr concentration, Rep A” value [2] was 9.688 µM, the “Aqueous Fraction, Rep B” value [2] was 16.00 nM and the “Stability (T5hr/ T1hr), Rep B” value [2] was 1.1708. The “Time 1 hr concentration, Rep B” value [2] was 8.76 µM, the “Time 5 hr concentration, Rep B” value [2] was 10.256 µM and the “Aqueous Fraction, Rep C” value [2] was 22.40 nM. For the same compound, the “Stability (T5hr/ T1hr), Rep C” value [2] was 0.9866, the “Time 1 hr concentration, Rep C” value [2] was 10.184 µM and the “Time 5 hr concentration, Rep C” value [2] was 10.048 µM. It also gave a fraction unbound at 4 h, 10 µM [3, 7] of 0.0018, a fraction unbound at 4 h, 10 µM [3, 8] of 0.00165 and a fraction unbound at 4 h, 10 µM [3, 9] of 0.00156. For the same compound, the fraction unbound at 4 h, 10 µM [3, 10] was 0.00223, the “Clhep (hepatic clearance)” value [4] was 0 L/h and the Css [4] was 186410 ng/mL. For the same compound, the “Css (steady-state concentration, plasma)” value [4] was 375.76 µM and 375.7648 µM, the fraction unbound [4] was 0.0024 and the Clint [4] was 0 µL/min.
